The source of these data is article PMC4527756 (Bioorganic & medicinal chemistry, 2015).

Assay [1] addresses (α1)2β1γδ ("muscle type") nAChR (Tetronarce californica, UniProt P02710+P02714+P02718). Put plainly: radioligand binding assay, muscle type nAChR. More on the design: species or system Torpedo californica.
The target in assay [2] is α4β2* nAChR (Rattus norvegicus, UniProt P09483+P12390). Put plainly: radioligand binding assay, α4β2* nAChR. The arrangement: species or system Sprague-Dawley rat. The note with it: for Measured activity scale: class of measured α4β2* Ki; for affinity for nAChR subtypes (in words): α4β2* and other nAChR subtypes tested.
Assay [3] deals with α4β2* nAChR. The note with it: read-out: α4β2* Ki; cited from earlier work.
In assay [4] the target is α4β2* nAChR. The note with it: [3H]cytisine, cited from earlier work; for Ki: read-out: α4β2* Ki.
The test system of another assay is α7 nAChR. As to conditions: read-out: α7 nAChR IC50; selective α7 nAChR agonist; cited from earlier work.
Assay [5] deals with mouse tail suspension test. The note with it: cited from earlier work.
The test system of another assay is α4β2* nAChRs. The note with it: cited from earlier work.
For the next assay, the target named is α7* nAChR (Rattus norvegicus, UniProt Q05941). Put plainly: radioligand binding assay, α7* nAChR. The arrangement: species or system Sprague-Dawley rat.
The target of another assay is α3β4* nAChR (Sus scrofa, UniProt A0A287A7Z4+O18764). Kind of assay: radioligand binding assay, α3β4* nAChR. The arrangement: species or system pig.
Another assay has as its system mouse tail-flick test. The note with it: cited from earlier work.

Where two headings read alike, the source gives them in different places. Where only a bound is given, the exact number is not on record here.

Sequence of (α1)2β1γδ ("muscle type") nAChR (P02718 22-522): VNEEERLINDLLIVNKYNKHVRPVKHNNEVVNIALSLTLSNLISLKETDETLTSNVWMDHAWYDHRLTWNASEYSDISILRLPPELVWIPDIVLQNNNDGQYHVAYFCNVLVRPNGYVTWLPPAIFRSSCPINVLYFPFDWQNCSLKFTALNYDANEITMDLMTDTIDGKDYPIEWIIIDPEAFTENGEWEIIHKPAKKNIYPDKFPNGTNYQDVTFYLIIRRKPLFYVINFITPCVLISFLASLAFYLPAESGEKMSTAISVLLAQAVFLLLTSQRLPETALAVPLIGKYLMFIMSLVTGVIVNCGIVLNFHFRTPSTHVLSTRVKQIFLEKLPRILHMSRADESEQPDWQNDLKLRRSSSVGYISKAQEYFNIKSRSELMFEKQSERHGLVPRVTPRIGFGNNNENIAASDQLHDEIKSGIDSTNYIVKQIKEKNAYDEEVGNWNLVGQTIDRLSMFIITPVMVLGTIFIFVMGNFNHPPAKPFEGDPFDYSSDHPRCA
Sequence of (α1)2β1γδ ("muscle type") nAChR (P02714 18-506): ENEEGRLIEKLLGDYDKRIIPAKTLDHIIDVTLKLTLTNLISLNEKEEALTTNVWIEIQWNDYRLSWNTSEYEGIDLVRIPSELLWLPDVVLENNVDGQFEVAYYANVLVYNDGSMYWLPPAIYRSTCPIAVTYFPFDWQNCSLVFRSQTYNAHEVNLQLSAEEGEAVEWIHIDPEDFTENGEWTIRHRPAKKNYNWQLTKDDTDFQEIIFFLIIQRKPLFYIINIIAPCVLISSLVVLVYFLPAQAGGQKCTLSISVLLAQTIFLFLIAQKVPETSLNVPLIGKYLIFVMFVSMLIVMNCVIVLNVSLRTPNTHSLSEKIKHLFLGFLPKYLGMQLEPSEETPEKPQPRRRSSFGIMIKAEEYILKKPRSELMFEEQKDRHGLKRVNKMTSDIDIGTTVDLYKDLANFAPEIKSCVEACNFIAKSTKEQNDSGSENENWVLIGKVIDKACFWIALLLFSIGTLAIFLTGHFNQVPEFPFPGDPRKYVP
Sequence of (α1)2β1γδ ("muscle type") nAChR (P02710 25-461): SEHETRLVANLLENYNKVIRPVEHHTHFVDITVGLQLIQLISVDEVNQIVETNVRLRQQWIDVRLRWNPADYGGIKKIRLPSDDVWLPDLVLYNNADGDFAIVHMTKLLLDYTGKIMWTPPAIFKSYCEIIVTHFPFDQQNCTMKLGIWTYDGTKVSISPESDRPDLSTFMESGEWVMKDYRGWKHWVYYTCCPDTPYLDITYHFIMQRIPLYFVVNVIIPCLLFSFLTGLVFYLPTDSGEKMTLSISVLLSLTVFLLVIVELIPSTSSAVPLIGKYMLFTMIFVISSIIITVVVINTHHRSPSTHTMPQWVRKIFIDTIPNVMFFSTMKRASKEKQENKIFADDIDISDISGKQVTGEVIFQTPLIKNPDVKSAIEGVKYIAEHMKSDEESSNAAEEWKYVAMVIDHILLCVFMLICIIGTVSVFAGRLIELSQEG
Sequence of (α1)2β1γδ ("muscle type") nAChR (P02712 25-493, further chain): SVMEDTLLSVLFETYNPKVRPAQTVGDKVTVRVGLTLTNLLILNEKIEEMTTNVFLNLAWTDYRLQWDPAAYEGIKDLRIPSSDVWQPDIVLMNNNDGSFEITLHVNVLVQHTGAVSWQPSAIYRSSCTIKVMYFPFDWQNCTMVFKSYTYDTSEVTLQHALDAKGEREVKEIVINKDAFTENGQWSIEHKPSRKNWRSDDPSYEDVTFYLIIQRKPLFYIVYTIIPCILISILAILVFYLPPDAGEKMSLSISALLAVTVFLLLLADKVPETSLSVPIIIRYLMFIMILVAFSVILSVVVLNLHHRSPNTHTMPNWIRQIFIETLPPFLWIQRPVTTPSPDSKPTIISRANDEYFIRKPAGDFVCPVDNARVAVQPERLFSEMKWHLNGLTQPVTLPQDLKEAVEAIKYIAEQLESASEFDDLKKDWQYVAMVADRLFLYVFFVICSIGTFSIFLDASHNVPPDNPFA
Sequence of α7* nAChR (Q05941 23-502): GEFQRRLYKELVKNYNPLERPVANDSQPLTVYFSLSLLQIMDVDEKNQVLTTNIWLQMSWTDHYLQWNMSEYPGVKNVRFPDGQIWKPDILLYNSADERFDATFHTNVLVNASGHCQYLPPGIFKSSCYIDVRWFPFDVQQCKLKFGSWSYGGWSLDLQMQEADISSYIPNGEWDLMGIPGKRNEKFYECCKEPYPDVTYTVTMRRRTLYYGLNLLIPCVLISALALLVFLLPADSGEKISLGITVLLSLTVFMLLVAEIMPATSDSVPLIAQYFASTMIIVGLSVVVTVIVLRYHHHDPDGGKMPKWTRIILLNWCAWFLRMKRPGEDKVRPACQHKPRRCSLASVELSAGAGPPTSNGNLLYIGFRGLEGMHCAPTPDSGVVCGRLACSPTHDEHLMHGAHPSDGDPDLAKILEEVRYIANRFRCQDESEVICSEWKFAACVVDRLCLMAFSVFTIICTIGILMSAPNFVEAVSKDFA
Sequence of α4β2* nAChR (Rattus norvegicus, UniProt P09483+P12390) (P09483 31-630): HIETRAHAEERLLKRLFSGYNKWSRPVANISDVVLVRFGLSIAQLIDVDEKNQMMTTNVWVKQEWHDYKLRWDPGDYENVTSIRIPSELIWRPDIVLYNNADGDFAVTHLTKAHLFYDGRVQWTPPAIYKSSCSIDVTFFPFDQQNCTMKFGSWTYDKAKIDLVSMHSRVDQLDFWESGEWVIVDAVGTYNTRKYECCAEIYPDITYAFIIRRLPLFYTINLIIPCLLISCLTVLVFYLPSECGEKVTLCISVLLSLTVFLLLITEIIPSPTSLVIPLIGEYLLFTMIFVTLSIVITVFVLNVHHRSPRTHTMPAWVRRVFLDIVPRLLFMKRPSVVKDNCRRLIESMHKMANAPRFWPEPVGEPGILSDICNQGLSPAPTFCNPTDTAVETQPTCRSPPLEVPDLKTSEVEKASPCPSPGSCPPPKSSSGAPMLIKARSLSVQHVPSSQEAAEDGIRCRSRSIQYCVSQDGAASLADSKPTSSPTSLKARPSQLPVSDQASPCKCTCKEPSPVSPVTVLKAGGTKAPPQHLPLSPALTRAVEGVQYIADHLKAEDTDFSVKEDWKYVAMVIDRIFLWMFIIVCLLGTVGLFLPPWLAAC
Sequence of α4β2* nAChR (Rattus norvegicus, UniProt P09483+P12390) (P12390 25-500): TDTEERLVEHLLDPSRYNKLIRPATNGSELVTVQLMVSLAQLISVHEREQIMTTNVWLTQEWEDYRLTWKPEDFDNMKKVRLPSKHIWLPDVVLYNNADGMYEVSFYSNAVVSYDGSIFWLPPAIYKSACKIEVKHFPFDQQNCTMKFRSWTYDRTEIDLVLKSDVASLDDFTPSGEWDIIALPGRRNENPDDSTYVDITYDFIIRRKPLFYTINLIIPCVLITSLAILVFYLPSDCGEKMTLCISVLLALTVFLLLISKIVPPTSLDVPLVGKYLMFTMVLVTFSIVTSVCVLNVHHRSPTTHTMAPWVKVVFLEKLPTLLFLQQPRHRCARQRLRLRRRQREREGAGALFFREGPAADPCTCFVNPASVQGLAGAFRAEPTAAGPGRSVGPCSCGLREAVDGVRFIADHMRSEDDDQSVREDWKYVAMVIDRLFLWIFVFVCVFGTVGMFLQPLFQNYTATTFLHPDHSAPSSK

As usually defined, the Ki is a measure of affinity in units of concentration, obtained from inhibition or displacement. For the molecule `CN(C)CCOc1cncc(N2CCNCC2)c1` [Compound 20a, N,N-dimethyl-2-{[5-(piperazin-1-yl)pyridin-3-yl]oxy}ethanamine], in assay [1], the Ki was greater than 1000 nM. Further, at α4β2* nAChR [2], the “fold lower α4β2* affinity in comparison with compound 17a” value is “about 770 fold” and the Measured activity scale result is listed as “+++ (highly active +++, Ki < 150 nM)”.
Regarding `CN1[C@@H](CC(=O)c2ccccc2)CCC[C@H]1C[C@H](O)c1ccccc1` [Lobeline 1, lobeline], the Ki at α4β2* nAChR [3] was 4 to 30 nM.
As to `CN(C)CCOc1cncc(N2CCCN(C)CC2)c1` [Compound 19a, N,N-dimethyl-2-((5-(4-methyl-1,4-diazepan-1-yl)pyridin-3-yl)oxy)ethanamine], at α4β2* nAChR [2], the affinity corresponds to a Ki of 6.9 nM and the Measured activity scale entry was “++ (moderately active ++, 150 nM < Ki < 1,000 nM)”.
For `CN(C)CCOc1cncc(N2CCCNCC2)c1` [Compound 18a, 2-((5-(1,4-diazepan-1-yl)pyridin-3-yl)oxy)-N,N-dimethylethanamine], in assay [1], the Ki was greater than 1000 nM. Also, the Measured activity scale result at α4β2* nAChR [2] is “+++ (highly active +++, Ki < 150 nM)”.
In the case of `c1cncc(N2CCNCC2)c1` [Compound 13a], the inhibition constant (Ki) at α4β2* nAChR [4] (ref 26) was 90 nM.
`CN(C)CCOc1cc(F)cc(N2CC3CNCC(C3)C2)c1` [Compound 17b, 2-(3-(3,7-diazabicyclo[3.3.1]nonan-3-yl)-5-fluorophenoxy)-N,N-dimethylethanamine] had an inhibition constant (Ki) in assay [1] greater than 1000 nM.
Regarding `CN(C)CCOc1cncc(N2CCCCC2)c1` [Compound 24, N,N-dimethyl-2-{[5-(piperidin-1-yl)pyridin-3-yl]oxy}ethanamine], on α4β2* nAChR [2], the Measured activity scale entry is “+ (inactive +, Ki > 1,000 nM)” and the “affinity for nAChR subtypes (in words)” value is recorded as “complete loss of affinity”.
As usually defined, the IC50 is the point on the concentration scale where inhibition reaches its midpoint. As for `CCN(CC)CCOc1ccc2c(c1)C(=O)c1cc(OCCN(CC)CC)ccc1-2` [tilorone 8, tilorone], the IC50 in the assay with α7 nAChR is 110 nM.
Turning to `CN(C)CCOc1cncc(N2CCOCC2)c1` [Compound 25, N,N-dimethyl-2-{[5-(morpholin-4-yl)pyridin-3-yl]oxy}ethanamine], at α4β2* nAChR [2], the Measured activity scale result was “+ (inactive +, Ki > 1,000 nM)” and the “affinity for nAChR subtypes (in words)” value was “complete loss of affinity”.
Take `CN(C)CCOc1cncc(N2CCCC2)c1` [Compound 23, N,N-dimethyl-2-{[5-(pyrrolidin-1-yl)pyridin-3-yl]oxy}ethanamine]: at α4β2* nAChR [2], the Measured activity scale entry was “+ (inactive +, Ki > 1,000 nM)” and the “affinity for nAChR subtypes (in words)” value was “complete loss of affinity”.
As to `CN1CCCN(c2cccnc2)CC1` [Compound 12b], the IC50 with α4β2* nAChR [4] (read-out: α4β2* (IC50), printed as IC50 in Ki column) was 150 nM.
In turn, `CN(C)CCOc1cncc(N2CC3CNCC(C3)C2)c1` [Compound 17a, 2-((5-(3,7-diazabicyclo[3.3.1]nonan-3-yl)pyridin-3-yl)oxy)-N,N-dimethylethanamine] had a Ki in [1] greater than 1000 nM. In addition, in assay [5], the “effect in the mouse tail suspension test (in words)” value was “efficacy in the mouse tail suspension test”. For the same molecule, the Measured activity scale result on α4β2* nAChR [2] is “+++ (highly active +++, Ki < 150 nM)”. Besides, the “functional activity for α4β2* nAChRs (in words)” value in the assay with α4β2* nAChRs is reported as “partial agonist activity”.
`CN(C)CCOc1cc(N2CC3CNCC(C3)C2)cc(F)c1F` [Compound 17c, 2-(5-(3,7-diazabicyclo[3.3.1]nonan-3-yl)-2,3-difluorophenoxy)-N,N-dimethylethanamine] returned a Ki in [1] greater than 1000 nM.
For `CN(C)CCOc1cncc(N2CCC(O)CC2)c1` [Compound 26, 1-(5-(2-(dimethylamino)ethoxy)pyridin-3-yl)piperidin-4-ol], on α7* nAChR, the “interaction with α7* nAChR (in words)” value is “no activity”. In addition, the Measured activity scale result at α4β2* nAChR [2] is listed as “++ (moderately active ++, 150 nM < Ki < 1,000 nM)”.
On to `CN(C)CCOc1cncc(-c2cncc(OCCN(C)C)c2)c1` [Compound 10, 2,2′-([3,3′-bipyridine]-5,5′-diylbis(oxy))bis(N,N-dimethylethanamine)], for which the “interaction with α7* nAChR (in words)” value on α7* nAChR was “no interaction”. Further, the “fold decreased α4β2* affinity in comparison with single entity 9” value on α4β2* nAChR [2] (versus compound 9) is listed as “approximately nine-fold”. The “interaction with α3β4* nAChR (in words)” value on α3β4* nAChR is listed as “no interaction”.
On to `CN1CCN(c2cccnc2)CC1` [Compound 13b], for which the Ki at α4β2* nAChR [4] (ref 26) was 90 nM.
Regarding `CN(C)CCOc1cncc(N2CCN(C)CC2)c1` [Compound 21a, N,N-dimethyl-2-{[5-(4-methylpiperazin-1-yl)pyridin-3-yl]oxy}ethanamine], the Ki in assay [1] was greater than 1000 nM. Besides, the Measured activity scale result at α4β2* nAChR [2] was “+++ (highly active +++, Ki < 150 nM)”.
Consider `CN(C)CCOc1cncc(N2CCC2)c1` [Compound 22, 2-{[5-(azetidin-1-yl)pyridin-3-yl]oxy}-N,N-dimethylethanamine], for which the “interaction with α7* nAChR (in words)” value on α7* nAChR is on record as “no activity”. The Measured activity scale entry on α4β2* nAChR [2] is given as “++ (moderately active ++, 150 nM < Ki < 1,000 nM)”.
Consider `CN(C)CCOc1cccnc1` [Compound 9, N,N-dimethyl-2-(pyridin-3-yloxy)ethan-1-amine], for which the “In vivo activity ED50” value in the assay on mouse tail-flick test was “ED50 (mg/kg) = 15 (mouse tail-flick test) [24]”. Also, the inhibition constant (Ki) at α4β2* nAChR [4] (ref 23) is 32.6 nM; at α4β2* nAChR [4] (ref 24), 24 nM.
